Here are results for three compounds from patent US20250230193A1, “CYCLIC COMPOUND HAVING SELECTIVE KRAS INHIBITORY EFFECT ON HRAS AND NRAS” (CHUGAI SEIYAKU KABUSHIKI KAISHA, priority 2022, published 2025).

SMILES strings stand for the structures. Where two headings read alike, the source gives them in different places.

The target of assay [1] is GDP-bound KRAS wild-type protein (Homo sapiens, UniProt P01116). The assay can be described thus: Binding to KRAS by surface plasmon resonance (SPR), Single Cycle Kinetics. As to conditions: GDP-bound KRAS wild-type protein.
In assay [2] the target is GDP-bound NRAS wild-type protein (Homo sapiens, UniProt P01111). The assay can be described thus: Binding to NRAS by surface plasmon resonance (SPR), Single Cycle Kinetics. As to conditions: SPR; for NRAS/KRAS (ratio of KD value for GDP-bound NRAS wild-type protein to KD value for KRAS): KD ratio class.
For assay [3], the target named is GDP-bound HRAS wild-type protein (Homo sapiens, UniProt P01112). The assay can be described thus: Binding to HRAS by surface plasmon resonance (SPR), Single Cycle Kinetics. As to conditions: SPR; for HRAS/KRAS (ratio of KD value for GDP-bound HRAS wild-type protein to KD value for KRAS): KD ratio class.
For assay [4], the system named is human lung cancer strain NCI-H441.
[5] abbreviates: read-out: NCI-H441 IC50, NCI-H441 cells, 4 days, CellTiter-Glo.

Chain of GDP-bound NRAS wild-type protein (P01111 whole entry): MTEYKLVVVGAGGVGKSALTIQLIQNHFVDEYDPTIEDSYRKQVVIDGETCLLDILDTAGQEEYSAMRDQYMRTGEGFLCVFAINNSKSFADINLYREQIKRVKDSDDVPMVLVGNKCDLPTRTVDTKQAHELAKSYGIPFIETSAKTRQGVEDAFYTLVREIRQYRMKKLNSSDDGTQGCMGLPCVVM
Chain of GDP-bound HRAS wild-type protein (P01112 whole entry): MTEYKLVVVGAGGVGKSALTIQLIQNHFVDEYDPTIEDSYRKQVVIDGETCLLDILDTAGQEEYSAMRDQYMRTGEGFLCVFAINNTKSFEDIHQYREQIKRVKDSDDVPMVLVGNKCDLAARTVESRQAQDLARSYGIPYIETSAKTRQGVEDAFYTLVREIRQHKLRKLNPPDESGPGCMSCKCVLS

In assay [1] (SPR, Single Cycle Kinetics), `CCC[C@H]1C(=O)N[C@@H]([C@@H](C)CC)C(=O)N(C)CC(=O)N(C)[C@H]2C/C=C\CCN(C2=O)[C@@H](Cc2ccc(C(F)(F)F)cc2)C(=O)N(C)CC(=O)N[C@@H](CCc2cc(F)c(C(F)(F)F)c(F)c2)C(=O)N2C[C@H](OCC)C[C@H]2C(=O)NC2(CCC2)C(=O)N(C)[C@@H](C2CCCC2)C(=O)N(C)[C@H](C(=O)N2CCCC2)CC(=O)N1C` [PP1299] displayed a Kd of 0.14 nM. For the same compound, the “NRAS/KRAS (ratio of KD value for GDP-bound NRAS wild-type protein to KD value for KRAS)” value in assay [2] was “A (a compound having 10 or more and less than 20 is denoted as A)”. For the same compound, the “HRAS/KRAS (ratio of KD value for GDP-bound HRAS wild-type protein to KD value for KRAS)” value in assay [3] is “A (a compound having 10 or more and less than 20 is denoted as A)”. Moreover, the IC50 in assay [4] (setting [5]) was 11 nM.
In assay [1] (SPR, Single Cycle Kinetics), `CC[C@H](C)[C@@H]1NC(=O)[C@H](CC)N(C)C(=O)C[C@@H](C(=O)N(C)C)N(C)C(=O)[C@H](C2CCCC2)N(C)C(=O)C2(CCC2)NC(=O)[C@@H]2C[C@H](C)CN2C(=O)[C@H](CCc2cc(F)c(C(F)(F)F)c(F)c2)NC(=O)CN(C)C(=O)[C@H](CC2CCC(F)(F)CC2)N2CC/C=C\C[C@@H](C2=O)N(C)C(=O)CN(C)C1=O` [PP1457] had an equilibrium dissociation constant (Kd) of 0.15 nM. In assay [2], the “NRAS/KRAS (ratio of KD value for GDP-bound NRAS wild-type protein to KD value for KRAS)” value is “A (a compound having 10 or more and less than 20 is denoted as A)”. For the same compound, in assay [3], the “HRAS/KRAS (ratio of KD value for GDP-bound HRAS wild-type protein to KD value for KRAS)” value was “A (a compound having 10 or more and less than 20 is denoted as A)”. Further, in assay [4] (setting [5]), the IC50 was 30.4 nM.
In assay [1] (SPR Single Cycle Kinetics, 1:1 binding model), `CC[C@H](C)[C@@H]1NC(=O)[C@H](CC(C)C)N(C)C(=O)C[C@@H](C(=O)N(C)C)N(C)C(=O)[C@H](C2CCCC2)N(C)C(=O)C2(CCCC2)NC(=O)[C@@H]2CCCN2C(=O)[C@H](CCc2ccc(C(F)(F)F)c(Cl)c2)NC(=O)CN(C)C(=O)[C@H](Cc2ccc(C(F)(F)F)cc2)N2CC=C(C)C[C@@H](C2=O)N(C)C(=O)CN(C)C1=O` [PP0621] came in with a Kd of 2.4 nM. Moreover, the “NRAS/KRAS (ratio of KD value with respect to GDP-bound NRAS wild-type protein to KD value with respect to KRAS)” value in assay [2] (KD ratio NRAS/KRAS) was “C (A compound having a KD ratio of 0.1 or more and less than 3 is denoted as C)”. Moreover, the “HRAS/KRAS (ratio of KD value with respect to GDP-bound HRAS wild-type protein to KD value with respect to KRAS)” value in assay [3] (KD ratio HRAS/KRAS) was “C (A compound having a KD ratio of 0.1 or more and less than 3 is denoted as C)”. The same compound came in with an IC50 in assay [4] of 83.6 nM.
